From ChEMBL document CHEMBL1147124, “Antigiardial activity of triterpenoids from root bark of Hippocratea excelsa” (J Nat Prod, 2007)

Tested on: Giardia intestinalis
Test: Antiprotozoal activity against Giardia intestinalis IMSS:0696:1 trophozoites after 48 hrs
Assay type: functional, organism-based
Conditions: Giardia duodenalis

SMILES	IC50 [µM]
COC(=O)[C@]1(C)CC[C@]2(C)CC[C@]3(C)C4=CC=C5C(=CC(=O)C(O)=C5C)[C@]4(C)CC[C@@]3(C)[C@@H]2C1 [PRISTIMERIN]	0.11
C[C@H]1C(=O)CCC2[C@]3(C)CC[C@@]4(C)C5CC(C)(C)[C@H](O)C[C@]5(C)CC[C@]4(C)C3CC[C@@]21C (stereo partly specified)	19.8
CC1=C(O)C(=O)C=C2C1=CC=C1[C@@]2(C)CC[C@@]2(C)[C@@H]3C[C@@H](C)C(=O)C[C@]3(C)CC[C@]12C [TINGENONE]	0.74
CC1(C)C[C@H]2C3=CC[C@@H]4[C@@]5(C)CCC(=O)C(C)(C)[C@@H]5CC[C@@]4(C)[C@]3(C)CC[C@@]2(C)C[C@@H]1O	27.4

Other lines, results leading:

IC50 [µM]	SMILES
22.4	COC(=O)/C=C1\C(C(C)=O)=CC=C2[C@]3(C)CC[C@@]4(C)CC[C@@](C)(C(=O)OC)CC4[C@@]3(C)CC[C@]21C (stereo partly specified) [DZUNUNCANONE]
11.3	COC(=O)[C@]1(C)CC[C@]2(C)CC[C@]3(C)C4=CC=C5C(=CC(=O)[C@]6(O)Oc7cc8c(cc7O[C@]56C)C(=O)C=C5[C@@]8(C)CC[C@@]6(C)[C@@H]7C[C@](C)(C(=O)OC)CC[C@]7(C)CC[C@]56C)[C@]4(C)CC[C@@]3(C)[C@@H]2C1 [XUXARINE EBETA]
